From ChEMBL document CHEMBL4418493, “N-hydroxyformamide compounds and compositions comprising them for use as BMP1, TLL1 and/or TLL2 inhibitors” (2018)

Columns and labels:
[1] = Reduction in PICP levels in human cardiac fibroblasts incubated for 24 to 48 hrs by ELISA; type: functional
[2] = Reduction in mature collagen deposition levels in human cardiac fibroblasts incubated for 24 to 48 hrs by immunostaining based assay; type: functional
[3] = Drug metabolism in heparinized pooled human plasma at pH 7.5 assessed as formation of (S)-2-(2-ethoxy-4-(5-((((R)-2-((R)-1-(N-hydroxyformamido)propyl)heptanamido)methyl) carbamoyl)furan-2-yl)benzamido)succinic acid at 100 to 2000 ng/ml incubated up to 4 or 24 hrs by LC-MS/MS analysis; type: ADME, cell-free; settings: pH 7.5, 24 h
[4] = Drug metabolism in heparinized pooled human plasma at pH 7.5 assessed as conversion to active compound at 100 to 2000 ng/ml incubated for 4 by LC-MS/MS analysis; type: ADME, cell-free
[5] = Stability in pH 7.96 assessed as compound purity level at 1 mg/ml heated to 40 degC and measured at 200 hrs by LC/MS analsysis; type: physicochemical; settings: buffer, read-out: Stability
[6] = biological target: T1, Bone morphogenetic protein 1 (Homo sapiens, UniProt P13497); experiment: Inhibition of C-terminal FLAG-6x-His epitope tagged and N-terminal human RAGE signal sequence tagged human BMP1 (121 to 721 amino acids) expressed in CHO-E1a cells pre-incubated for 10 mins before promyostatin peptide substrate addition and measured after 60 mins using 0.5 nM BMP1 by FRET based assay; type: cell-based
T1 sequence (P13497 whole entry): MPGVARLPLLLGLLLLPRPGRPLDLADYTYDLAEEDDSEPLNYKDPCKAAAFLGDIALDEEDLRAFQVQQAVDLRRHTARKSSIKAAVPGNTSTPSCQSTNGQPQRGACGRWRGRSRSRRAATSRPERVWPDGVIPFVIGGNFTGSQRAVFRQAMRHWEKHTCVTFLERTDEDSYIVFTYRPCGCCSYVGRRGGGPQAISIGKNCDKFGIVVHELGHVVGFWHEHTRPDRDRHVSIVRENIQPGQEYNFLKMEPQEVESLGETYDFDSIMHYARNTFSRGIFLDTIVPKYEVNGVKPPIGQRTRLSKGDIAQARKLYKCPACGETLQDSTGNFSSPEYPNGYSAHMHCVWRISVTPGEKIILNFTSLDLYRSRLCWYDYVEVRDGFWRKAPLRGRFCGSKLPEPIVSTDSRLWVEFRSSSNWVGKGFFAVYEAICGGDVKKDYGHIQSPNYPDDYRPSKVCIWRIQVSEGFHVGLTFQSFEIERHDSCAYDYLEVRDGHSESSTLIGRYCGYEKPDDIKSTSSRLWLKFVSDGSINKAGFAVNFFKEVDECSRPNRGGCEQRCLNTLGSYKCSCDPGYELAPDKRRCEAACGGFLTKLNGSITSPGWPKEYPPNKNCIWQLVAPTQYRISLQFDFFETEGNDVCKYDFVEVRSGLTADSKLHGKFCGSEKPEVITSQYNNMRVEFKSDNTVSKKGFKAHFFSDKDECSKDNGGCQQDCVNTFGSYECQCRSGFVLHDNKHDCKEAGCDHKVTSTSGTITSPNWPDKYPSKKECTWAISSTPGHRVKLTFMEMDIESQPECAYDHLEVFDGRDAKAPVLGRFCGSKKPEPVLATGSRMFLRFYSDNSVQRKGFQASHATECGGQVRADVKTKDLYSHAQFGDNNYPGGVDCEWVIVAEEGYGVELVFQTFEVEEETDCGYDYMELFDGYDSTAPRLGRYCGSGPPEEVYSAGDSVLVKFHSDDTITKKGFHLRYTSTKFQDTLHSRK

[7] = biological target: Tolloid-like protein 1 (Homo sapiens, UniProt O43897, I156V/N221S/V284A); experiment: Inhibition of recombinant human TLL1 I156V/N221S/V284A mutant expressed in CHOE1A cells pre-incubated for 10 mins before promyostatin peptide substrate addition and measured after 60 mins by FRET based assay; type: cell-based
[8] = biological target: T2, Tolloid-like protein 2 (Homo sapiens, UniProt Q9Y6L7); experiment: Inhibition of C-terminal Avi-6x-His epitope tagged and N-terminal human RAGE signal sequence tagged recombinant human TLL2 (26 to 1015 amino acids) expressed in CHOE1A cells incubated for 60 mins with promyostatin peptide substrate by FRET based assay; type: cell-based
T2 sequence (Q9Y6L7 whole entry): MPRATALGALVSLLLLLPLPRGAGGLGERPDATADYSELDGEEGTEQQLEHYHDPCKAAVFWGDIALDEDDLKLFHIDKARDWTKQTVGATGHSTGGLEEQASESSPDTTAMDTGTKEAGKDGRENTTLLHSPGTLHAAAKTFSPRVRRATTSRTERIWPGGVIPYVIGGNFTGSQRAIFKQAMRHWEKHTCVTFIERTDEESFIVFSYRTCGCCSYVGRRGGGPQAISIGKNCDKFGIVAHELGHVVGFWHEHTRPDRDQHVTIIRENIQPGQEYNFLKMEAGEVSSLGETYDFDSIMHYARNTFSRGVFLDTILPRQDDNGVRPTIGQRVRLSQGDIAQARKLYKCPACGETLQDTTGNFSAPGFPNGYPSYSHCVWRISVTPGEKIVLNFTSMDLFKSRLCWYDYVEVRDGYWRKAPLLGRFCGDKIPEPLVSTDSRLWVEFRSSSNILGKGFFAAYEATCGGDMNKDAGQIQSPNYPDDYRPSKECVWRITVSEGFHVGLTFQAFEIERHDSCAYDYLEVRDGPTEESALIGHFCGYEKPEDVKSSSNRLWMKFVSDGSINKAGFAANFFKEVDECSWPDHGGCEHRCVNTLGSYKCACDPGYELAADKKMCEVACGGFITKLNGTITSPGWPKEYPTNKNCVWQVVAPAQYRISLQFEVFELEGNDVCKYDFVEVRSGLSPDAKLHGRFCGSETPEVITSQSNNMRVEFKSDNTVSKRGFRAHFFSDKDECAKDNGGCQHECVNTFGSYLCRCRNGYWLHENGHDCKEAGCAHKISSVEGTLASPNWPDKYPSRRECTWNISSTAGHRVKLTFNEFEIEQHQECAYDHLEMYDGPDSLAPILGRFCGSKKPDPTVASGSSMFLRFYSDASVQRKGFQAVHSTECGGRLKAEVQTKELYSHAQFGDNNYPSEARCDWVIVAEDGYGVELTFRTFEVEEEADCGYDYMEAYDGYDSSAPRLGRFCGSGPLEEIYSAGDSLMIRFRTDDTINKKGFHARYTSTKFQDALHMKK

[9] = Drug metabolism in heparinized pooled human plasma at pH 7.5 assessed as formation of N-(((R)-2-((R)-1-(N-hydroxyformamido)propyl)heptanamido)methyl)-5-phenylfuran-2-carboxamide at 100 to 2000 ng/ml incubated up to 4 or 24 hrs by LC-MS/MS analysis; type: ADME, cell-free; settings: pH 7.5, 24 h
[10] = Drug metabolism in heparinized pooled human plasma at pH 7.5 assessed as formation of (3-ethoxy-5-(5-((((R)-2-((R)-1-(N-hydroxyformamido)propyl)heptanamido)methyl)carbamoyl) furan-2-yl)phenyl)phosphonic acid at 100 to 2000 ng/ml incubated up to 4 or 24 hrs by LC-MS/MS analysis; type: ADME, cell-free; settings: pH 7.5, 24 h

Tolloid-like protein 1, sequence (O43897 148-1013 I156V/N221S/V284A limits assumed): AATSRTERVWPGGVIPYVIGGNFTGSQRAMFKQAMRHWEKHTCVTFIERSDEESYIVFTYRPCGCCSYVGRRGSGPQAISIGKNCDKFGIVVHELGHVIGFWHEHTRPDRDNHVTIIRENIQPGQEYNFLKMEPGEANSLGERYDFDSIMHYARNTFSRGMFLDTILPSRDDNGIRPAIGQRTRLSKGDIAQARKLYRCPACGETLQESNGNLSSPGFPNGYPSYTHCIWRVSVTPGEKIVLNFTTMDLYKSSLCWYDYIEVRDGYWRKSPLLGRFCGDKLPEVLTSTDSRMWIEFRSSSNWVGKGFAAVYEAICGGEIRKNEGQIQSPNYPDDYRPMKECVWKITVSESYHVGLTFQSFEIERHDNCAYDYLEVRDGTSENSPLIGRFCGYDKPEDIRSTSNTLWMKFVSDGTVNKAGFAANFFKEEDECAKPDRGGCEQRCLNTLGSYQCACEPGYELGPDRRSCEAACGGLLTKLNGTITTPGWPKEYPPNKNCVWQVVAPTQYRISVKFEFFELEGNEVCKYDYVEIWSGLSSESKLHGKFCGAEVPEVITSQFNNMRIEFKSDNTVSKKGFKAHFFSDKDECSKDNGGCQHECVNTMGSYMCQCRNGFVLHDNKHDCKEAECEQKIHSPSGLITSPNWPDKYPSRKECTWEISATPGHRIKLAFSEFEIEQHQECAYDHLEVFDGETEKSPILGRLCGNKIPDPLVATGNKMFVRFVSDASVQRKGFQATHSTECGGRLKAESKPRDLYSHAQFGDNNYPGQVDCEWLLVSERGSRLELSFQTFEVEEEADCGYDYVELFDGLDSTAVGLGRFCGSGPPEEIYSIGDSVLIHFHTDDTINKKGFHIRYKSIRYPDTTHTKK

| Drug metabolism [3] | Drug metabolism [4] | remaining at 200 h, 1 mg/ml [5] | Drug metabolism [9] | Drug metabolism [10] | SMILES | IC50 [1] | IC50 [2] | IC50 [6] | IC50 [7] | IC50 [8] |
| --- | --- | --- | --- | --- | --- | --- | --- | --- | --- | --- |
| Metabolite_Detected | > 10% | < 80% |  |  | CCCCC[C@@H](C(=O)NCNC(=O)c1ccc(-c2ccc(C(=O)N[C@@H](CC(=O)O)C(=O)O)c(OCC)c2)o1)[C@@H](CC)N(C=O)OC(=O)C(C)(C)C | < 3.98 µM | < 1000 nM |  |  |  |
|  |  |  |  |  | CCCCC[C@@H](C(=O)NCNC(=O)c1ccc(-c2cc(OCC)cc(P(=O)(O)OCOC(=O)OC(C)C)c2)o1)[C@@H](CC)N(O)C=O | < 0.398 µM |  | < 316 nM | < 251 nM | < 398 nM |
|  |  |  |  |  | CCCCC[C@@H](C(=O)NCNC(=O)c1ccc(-c2ccc(C(=O)N[C@@H](CC(=O)O)C(=O)OC(C)(C)C)c(OCC)c2)o1)[C@@H](CC)N(O)C=O | 0.398 to 3.98 µM |  | 126 to 316 nM | 251 to 398 nM | 398 to 794 nM |
|  |  |  | Metabolite_Detected |  | CCCCC[C@@H](C(=O)NCNC(=O)c1ccc(-c2ccccc2)o1)[C@@H](CC)N(C=O)OCOP(=O)(O)O.N.N |  |  |  |  |  |
|  |  |  |  |  | CCCCC[C@@H](C(=O)NCNC(=O)c1ccc(-c2ccc(C(=O)N[C@@H](CC(=O)O)C(=O)OCC)c(OCC)c2)o1)[C@@H](CC)N(O)C=O | 0.398 to 3.98 µM | < 1000 nM | 126 to 316 nM | 251 to 398 nM | 398 to 794 nM |
|  | > 10% | < 80% | Metabolite_Detected |  | CCCCC[C@@H](C(=O)NCNC(=O)c1ccc(-c2ccccc2)o1)[C@@H](CC)N(C=O)OC(=O)C(C)(C)C | < 3.98 µM |  |  |  |  |
|  | > 10% | < 80% |  | Metabolite_Detected | CCCCC[C@@H](C(=O)NCNC(=O)c1ccc(-c2cc(OCC)cc(P(=O)(O)O)c2)o1)[C@@H](CC)N(C=O)OCc1oc(=O)oc1C | < 3.98 µM |  |  |  |  |
|  |  |  |  |  | CCCCC[C@@H](C(=O)NCNC(=O)c1ccc(-c2ccc(C(=O)N[C@@H](CC(=O)OCC)C(=O)OCC)c(OCC)c2)o1)[C@@H](CC)N(O)C=O | 0.398 to 3.98 µM |  | 126 to 316 nM | 251 to 398 nM | 398 to 794 nM |
|  | > 10% | < 80% | Metabolite_Detected |  | CCCCC[C@@H](C(=O)NCNC(=O)c1ccc(-c2ccccc2)o1)[C@@H](CC)N(C=O)OC(=O)c1ccccc1 | < 3.98 µM |  |  |  |  |
|  | > 10% | < 80% |  | Metabolite_Detected | CCCCC[C@@H](C(=O)NCNC(=O)c1ccc(-c2cc(OCC)cc(P(=O)(O)O)c2)o1)[C@@H](CC)N(C=O)OCOC(=O)C(C)(C)C |  |  |  |  |  |
|  |  |  |  |  | CCCCC[C@@H](C(=O)NCNC(=O)c1ccc(-c2cc(OCC)cc(P(=O)(O)Oc3ccccc3)c2)o1)[C@@H](CC)N(O)C=O | < 0.398 µM |  | < 316 nM | < 251 nM | < 398 nM |
|  |  |  |  |  | CCCCC[C@@H](C(=O)NCNC(=O)c1ccc(-c2ccc(C(=O)OCC)cc2)o1)[C@@H](CC)N(O)C=O | 0.398 to 3.98 µM |  | 126 to 316 nM | 251 to 398 nM | 398 to 794 nM |
|  |  |  |  |  | CCCCC[C@@H](C(=O)NCNC(=O)c1ccc(-c2ccc(C(=O)OCCN(C)C)cc2)o1)[C@@H](CC)N(O)C=O | 0.398 to 3.98 µM |  | 126 to 316 nM | 251 to 398 nM | 398 to 794 nM |
|  |  |  |  |  | CCCCC[C@@H](C(=O)NCNC(=O)c1ccc(-c2ccc(C(=O)N[C@@H](CC(=O)OC(C)(C)C)C(=O)OC(C)(C)C)c(OCC)c2)o1)[C@@H](CC)N(O)C=O | 0.398 to 3.98 µM | < 1000 nM | 126 to 316 nM | 251 to 398 nM | 398 to 794 nM |
|  |  |  |  |  | CCCCC[C@@H](C(=O)NCNC(=O)c1ccc(-c2ccc(C(=O)OCCCC)cc2)o1)[C@@H](CC)N(O)C=O | 0.398 to 3.98 µM |  | 126 to 316 nM | 251 to 398 nM | 398 to 794 nM |
|  |  |  |  |  | CCCCC[C@@H](C(=O)NCNC(=O)c1ccc(-c2ccc(C(=O)N[C@@H](CC(=O)O)C(=O)OCOC(=O)c3ccccc3)c(OCC)c2)o1)[C@@H](CC)N(O)C=O | < 0.398 µM |  | < 316 nM | < 251 nM | < 398 nM |
|  | > 10% | < 80% | Metabolite_Detected |  | CCCCC[C@@H](C(=O)NCNC(=O)c1ccc(-c2ccccc2)o1)[C@@H](CC)N(C=O)OC(=O)OC | < 3.98 µM |  |  |  |  |
|  |  |  |  |  | CCCCC[C@@H](C(=O)NCNC(=O)c1ccc(-c2cc(OCC)cc(P(=O)(Oc3ccccc3)Oc3ccccc3)c2)o1)[C@@H](CC)N(O)C=O | < 3.98 µM |  | 126 to 316 nM |  |  |
|  | > 10% | < 80% | Metabolite_Detected |  | CCCCC[C@@H](C(=O)NCNC(=O)c1ccc(-c2ccccc2)o1)[C@@H](CC)N(C=O)OC(=O)Cc1ccccc1 | < 3.98 µM |  |  |  |  |
|  | > 10% | < 80% | Metabolite_Detected |  | CCCCC[C@@H](C(=O)NCNC(=O)c1ccc(-c2ccccc2)o1)[C@@H](CC)N(C=O)OC(=O)OC(C)(C)C | < 3.98 µM | < 1000 nM |  |  |  |

| SMILES | Drug metabolism [3] | Drug metabolism [4] | remaining at 200 h, 1 mg/ml [5] | Drug metabolism [9] | Drug metabolism [10] | IC50 [1] | IC50 [2] | IC50 [6] | IC50 [7] | IC50 [8] |
| --- | --- | --- | --- | --- | --- | --- | --- | --- | --- | --- |
| CCCCC[C@@H](C(=O)NCNC(=O)c1ccc(-c2ccc(C(=O)N[C@@H](CC(=O)OC)C(=O)OC)c(OCC(=O)OC)c2)o1)[C@@H](CC)N(O)C=O |  |  | < 80% |  |  | 0.398 to 3.98 µM |  | 126 to 316 nM | 251 to 398 nM | 398 to 794 nM |
| CCCCC[C@@H](C(=O)NCNC(=O)c1ccc(-c2cc(OCC)cc(P(=O)(OCOC(C)=O)OCOC(C)=O)c2)o1)[C@@H](CC)N(O)C=O |  |  |  |  | Metabolite_Detected | 0.398 to 3.98 µM |  | 126 to 316 nM | 251 to 398 nM | 398 to 794 nM |
